Experimental data as given in patent EP3075724A1, “SOLID FORM OF AGOMELATINE” (F.I.S.- Fabbrica Italiana Sintetici S.p.A., priority 2015, dated 2016).

How the values were obtained:
[1] = cited from earlier work
Kinetic dissolution test = type: physicochemical; conditions: 200 mg tablet, 100 mL saline solution, paddle 100 rpm, 37 °C
Procedure: The tests were performed in duplicate on 13 mm tablets containing 200 mg agomelatine (form I) or agomelatine pyruvic acid cocrystal, which were prepared on a Digital Hydraulic Press at a force of about 8 metric tons. The tablets were placed in 100 mL of saline solution in a paddle apparatus at 100 rpm and 37 °C ± 0.5 °C. A 3 mL sample was withdrawn from each vessel at fixed time points, filtered through a 0.45 µm filter (discarding the first 1 mL), analyzed by HPLC, and compared to a previously prepared reference standard calibration curve. Immediately after each sampling, the solutions in the vessels were replenished with 3 mL of saline.

[2] = Stability tests (chemical stability by HPLC); type: physicochemical
Procedure: Agomelatine pyruvic acid cocrystal according to Example 1 was subjected to stability tests for seven days at 25 °C, 60 % RH and 40 °C, 75 % RH, respectively.

[3] = 5 min, Ø (average of #1 and #2)
[4] = 15 min, Ø (average of #1 and #2)
[5] = 30 min, Ø (average of #1 and #2)
[6] = 45 min, Ø (average of #1 and #2)
[7] = 60 min, Ø (average of #1 and #2)
[8] = 90 min, Ø (average of #1 and #2)
[9] = 120 min, Ø (average of #1 and #2)
[10] = 180 min, Ø (average of #1 and #2)
[11] = 240 min, Ø (average of #1 and #2)
[12] = 300 min, Ø (average of #1 and #2)
[13] = 360 min, Ø (average of #1 and #2)
[14] = 420 min, Ø (average of #1 and #2)

Structure (SMILES)	kinetic dissolution in aqueous medium (Kinetic dissolution test; 5 min, #1)	kinetic dissolution in aqueous medium (Kinetic dissolution test; 5 min, #2)	kinetic dissolution in aqueous medium (Kinetic dissolution test; [3])	kinetic dissolution in aqueous medium (Kinetic dissolution test; 15 min, #1)	kinetic dissolution in aqueous medium (Kinetic dissolution test; 15 min, #2)	kinetic dissolution in aqueous medium (Kinetic dissolution test; [4])	kinetic dissolution in aqueous medium (Kinetic dissolution test; 30 min, #1)	kinetic dissolution in aqueous medium (Kinetic dissolution test; 30 min, #2)	kinetic dissolution in aqueous medium (Kinetic dissolution test; [5])	kinetic dissolution in aqueous medium (Kinetic dissolution test; 45 min, #1)	kinetic dissolution in aqueous medium (Kinetic dissolution test; 45 min, #2)	kinetic dissolution in aqueous medium (Kinetic dissolution test; [6])	kinetic dissolution in aqueous medium (Kinetic dissolution test; 60 min, #1)	kinetic dissolution in aqueous medium (Kinetic dissolution test; 60 min, #2)	kinetic dissolution in aqueous medium (Kinetic dissolution test; [7])	kinetic dissolution in aqueous medium (Kinetic dissolution test; 90 min, #1)	kinetic dissolution in aqueous medium (Kinetic dissolution test; 90 min, #2)	kinetic dissolution in aqueous medium (Kinetic dissolution test; [8])	kinetic dissolution in aqueous medium (Kinetic dissolution test; 120 min, #1)	kinetic dissolution in aqueous medium (Kinetic dissolution test; 120 min, #2)	also measured
COc1ccc2cccc(CCNC(C)=O)c2c1 [agomelatine, N-[2-(7-methoxynaphthalen-1-yl)ethyl]acetamide]																					solubility in various organic solvents ([1]; e.g. ethanol, methanol, methylene chloride, freely soluble): > 100 mg/mL; solubility in purified water ([1]; purified water, practically insoluble): < 0.1 mg/mL
COc1ccc2cccc(CCNC(C)=O)c2c1 [Pyruvic Acid Cocrystal]	5.21 µg/mL	5.45 µg/mL	5.33 µg/mL	12.55 µg/mL	13.42 µg/mL	12.99 µg/mL	22.75 µg/mL	24.10 µg/mL	23.43 µg/mL	33.41 µg/mL	37.03 µg/mL	35.22 µg/mL	42.71 µg/mL	50.65 µg/mL	46.68 µg/mL	70.03 µg/mL	77.31 µg/mL	73.67 µg/mL	84.65 µg/mL	90.24 µg/mL	kinetic dissolution in aqueous medium (Kinetic dissolution test; [9]): 87.45 µg/mL; kinetic dissolution in aqueous medium (Kinetic dissolution test; 180 min, #1): 114.37 µg/mL; kinetic dissolution in aqueous medium (Kinetic dissolution test; 180 min, #2): 114.58 µg/mL; kinetic dissolution in aqueous medium (Kinetic dissolution test; [10]): 114.48 µg/mL; kinetic dissolution in aqueous medium (Kinetic dissolution test; 240 min, #1): 131.99 µg/mL; kinetic dissolution in aqueous medium (Kinetic dissolution test; 240 min, #2): 131.80 µg/mL; kinetic dissolution in aqueous medium (Kinetic dissolution test; [11]): 131.9 µg/mL; kinetic dissolution in aqueous medium (Kinetic dissolution test; 300 min, #1): 144.64 µg/mL; kinetic dissolution in aqueous medium (Kinetic dissolution test; 300 min, #2): 144.74 µg/mL; kinetic dissolution in aqueous medium (Kinetic dissolution test; [12]): 144.69 µg/mL; kinetic dissolution in aqueous medium (Kinetic dissolution test; 360 min, #1): 155.52 µg/mL; kinetic dissolution in aqueous medium (Kinetic dissolution test; 360 min, #2): 156.49 µg/mL; kinetic dissolution in aqueous medium (Kinetic dissolution test; [13]): 156.01 µg/mL; kinetic dissolution in aqueous medium (Kinetic dissolution test; 420 min, #1): 165.30 µg/mL; kinetic dissolution in aqueous medium (Kinetic dissolution test; 420 min, #2): 163.14 µg/mL; kinetic dissolution in aqueous medium (Kinetic dissolution test; [14]): 164.22 µg/mL; chemical stability as determined by HPLC ([2]; seven days at 25 °C, 60 % RH): excellent chemical stability; chemical stability as determined by HPLC ([2]; seven days at 40 °C, 75 % RH): excellent chemical stability
COc1ccc2cccc(CCNC(C)=O)c2c1 [Form I, N-[2-(7-methoxynaphthalen-1-yl)ethyl]acetamide]	3.39 µg/mL	4.38 µg/mL	3.89 µg/mL	8.20 µg/mL	9.32 µg/mL	8.76 µg/mL	14.80 µg/mL	15.58 µg/mL	15.19 µg/mL	22.55 µg/mL	23.81 µg/mL	23.18 µg/mL	30.05 µg/mL	31.53 µg/mL	30.79 µg/mL	47.49 µg/mL	50.84 µg/mL	49.17 µg/mL	55.73 µg/mL	58.72 µg/mL	kinetic dissolution in aqueous medium (Kinetic dissolution test; [9]): 57.23 µg/mL; kinetic dissolution in aqueous medium (Kinetic dissolution test; 180 min, #1): 75.07 µg/mL; kinetic dissolution in aqueous medium (Kinetic dissolution test; 180 min, #2): 74.85 µg/mL; kinetic dissolution in aqueous medium (Kinetic dissolution test; [10]): 74.96 µg/mL; kinetic dissolution in aqueous medium (Kinetic dissolution test; 240 min, #1): 91.32 µg/mL; kinetic dissolution in aqueous medium (Kinetic dissolution test; 240 min, #2): 86.85 µg/mL; kinetic dissolution in aqueous medium (Kinetic dissolution test; [11]): 89.09 µg/mL; kinetic dissolution in aqueous medium (Kinetic dissolution test; 300 min, #1): 102.54 µg/mL; kinetic dissolution in aqueous medium (Kinetic dissolution test; 300 min, #2): 96.76 µg/mL; kinetic dissolution in aqueous medium (Kinetic dissolution test; [12]): 99.65 µg/mL; kinetic dissolution in aqueous medium (Kinetic dissolution test; 360 min, #1): 112.42 µg/mL; kinetic dissolution in aqueous medium (Kinetic dissolution test; 360 min, #2): 106.36 µg/mL; kinetic dissolution in aqueous medium (Kinetic dissolution test; [13]): 109.39 µg/mL; kinetic dissolution in aqueous medium (Kinetic dissolution test; 420 min, #1): 121.98 µg/mL; kinetic dissolution in aqueous medium (Kinetic dissolution test; 420 min, #2): 114.14 µg/mL; kinetic dissolution in aqueous medium (Kinetic dissolution test; [14]): 118.06 µg/mL
